This note sets out measurements from patent publication US20050181385A1, “Synthetic lethal screen using RNA interference” (priority 2003, published 2005).

Where “and” joins values, the source holds several entries; their conditions need not be identical. Equal values may be shown once.

Holding throughout (assay type): cell-based, human
One assay concerns HeLa cells. Briefly: siRNA library screen for sensitization to Cisplatin (Alamar Blue growth). Here is the method:
The primary screen with each agent was performed in HeLa cells, which are TP53 deficient. HeLa cells were transfected with siRNA pools, and the drugs were added 4 hrs later. […] The growth of cells +/−drug was assessed at 72 hrs post-transfection.
siRNA transfection was carried out as follows: one day prior to transfection, 50 microliters of a chosen cell line, e.g., cervical cancer HeLa cells (ATCC, Cat. No. CCL-2), grown in DMEM/10% fetal bovine serum (Invitrogen, Carlsbad, Calif.) to approximately 90% confluency were seeded in a 384-well tissue culture plate at 450 cells/well. For each transfection 20 microliters of OptiMEM (Invitrogen) was mixed with 2 microliter of siRNA (Dharmacon, Lafayette, Colo.) from a 10 micromolar stock. For each transfection, a ratio of 20 microliter of OptiMEM was mixed with 1 microliter of Oligofectamine reagent (Invitrogen) and incubated 5 minutes at room temperature. Then 20-microliter OptiMEM/Oligofectamine mixture was dispensed into each well of the 96 well plate with the OptiMEM/siRNA mixture, mixed and incubated 15-20 minutes at room temperature.
The internal environment of the proliferating cell is more reduced than that of non-proliferating cells.
On the technique in general: Alamar Blue is a resazurin reagent that responds to reducing activity.

Another assay relates to TP53-negative A549 cells. The assay is described as follows: Alamar Blue cell growth, cisplatin after siRNA supertransfection, TP53-negative cells (FIG. 20). As for the experimental part:
A549 cells stably transfected with empty vector (pRS, left panel) or an shRNA targeting TP53 (pRS-TP53, right panel) were supertransfected with siRNAs to luciferase, BRCA1, or BRCA2 prior to treatment with the DNA damaging agent, cisplatin. Cell growth was measured 72 hrs post-transfection using Alamar Blue.
The cell lines used in this example were HeLa cells, TP53-positive A549 cells and TP53-negative A549 cells. The matched pair of TP53 positive and negative cells were generated by stable transfection of short hairpin RNAs (shRNAs) targeting TP53 (monthly highlt highlight, November 2003). […]
After 4 hours, 100 microliter/well of DMEM/10% fetal bovine serum with or without DNA damage agents was added to each well to reach the final concentration of each agents as described above. […] Samples from the 6-well plates were analyzed for cell cycle profiles and samples from 96-well plates were analyzed for cell growth with Alamar Blue assay.
For Alamar Blue assay, the media from the 96-well plates was removed, and 100 uL/well complete media containing 10% (vol/vol) alamarBlue reagent (BioSource International, Inc) and 1/100th volume 1M Hepes buffer tissue culture reagent was added. The plates were then incubated 1-4 hours at 37° C. and fluorescence was measured by exciting at 544 nm and detecting emission at 590 nm with […]ax Gemini-Xs Spectrofluorometer (Molceular Devices). […]

For assay [1], the system named is TP53 mRNA. Briefly: TP53 knockdown by TaqMan, pRS-p53 shRNA in HCT116 cells. An excerpt:
In another specific embodiment, the invention provides a method for determining synthetic lethality between p53 and CHEK1. Stable clones having p53 gene silenced was generated. The pRS-TP53 1026 shRNA plasmid was deconvoluted from a library plasmid pool for TP53 by transforming bacteria with the pool and looking for clones containing only the plasmid of interest. The sequences used are as follows: pRS-p53 1026 19mer sequence: […] (SEQ ID NO:43); primers for sequence specific PCR: Forward: […] (SEQ ID NO:44), Reverse: […] (SEQ ID NO:45). Plasmids were identified by sequence specific PCR, and confirmed by sequencing. Stable p53-clones were generated by transfecting HCT116 cells using FuGENE 6 (Roche) with the pRS-TP53 1026 plasmid. Cells were split into 10 cm dishes plus 1 ug/ml puromycin 48 hours later, and maintained until colonies were evident (5-7 days). Clones were picked into a 96 well plate, maintained in 1 ug/ml puromycin, and tested for knockdown by TaqMan using the TP53 and hGUS Pre-Developed Assay Reagent (Applied Biosystems). To measure transient knockdown by the pRS-TP53 1026 plasmid, HCT116 cells were transfected using Lipofectamine 2000 (Invitrogen), and RNA harvested 24 hours later. TP53 transcript levels were assessed by TaqMan. […]
(In general: Real-time PCR tracks product formation cycle by cycle.)

In assay [2] the test system is TP53 mRNA. Briefly: TP53 mRNA silencing in A549 cells stably transfected with pRS-p53. To be noted: stable A549 pRS-p53 cells versus pRS cells. As for the experimental part:
(§1) Next, supertransfection of the CHEK1 siRNA pool into cells stably expressing TP53 shRNAs was evaluated to determine if it could be used to investigate genetic interactions (SL) between these molecules. Matched cell lines +/−TP53 expression were generated by selecting stable clones of A549 lung cancer cell lines containing either empty pRS vector or pRS-p53. […] Both cell lines were then supertransfected with either control luciferase siRNA (luc, 100 nM) or the CHEK1 siRNA pool (100 nM total; 33 nM each of 3 siRNAs) and their cell cycle profiles examined with or without exposure to the DNA damaging agent, doxorubicin (Dox, FIG. 5). Cell cycle profiles of pRS-p53 cells were not appreciably different from those of pRS cells in the absence of Dox.
as §1, with “molecules. […]” for “molecules.”, “Cell cycle profiles of pRS-p53 cells were not appreciably different from those of pRS cells in the absence of Dox.” left out

The next assay has as its system CHEK1 and TP53 mRNA. Briefly: Competition between stable TP53 shRNA and CHEK1 siRNA pool, TaqMan (FIG. 4A). To be noted: HCT116 clone A11, siRNA pool 100 nM, 24 hours. Here is the method:
A pool of three siRNAs targeting CHEK1 was transiently transfected into WT and pRS-p53 stably transfected HCT116 cells (clone A11). CHEK1 and TP53 mRNA levels were measured by Taqman analysis (left and right panels, respectively). […] STK6 and KNSL1 siRNAs were transiently co-transfected into WT SW480 cells and KNSL1 siRNAs were supertransfected into pRS-STK6 stably transfected SW480 cells. STK6 mRNA levels were measured by Taqman analysis. For the left set of bars, STK6 siRNA (10 nM) was used alone or together with one of three different individual KNSL1 siRNAs (10 nM each). […]
To test whether TP53 silencing in HCT116 clone A11 was subject to competition with siRNAs, cells of this clone were supertransfected with a pool of CHEK1-specific siRNAs. […] RNA was harvested 24 hours post transfection and knockdown was assessed by TaqMan analysis using the CHK1 or TP53 and hGUS Pre-Developed Assay Reagent (Applied Biosystems). […] This is in contrast to the observation that two different siRNAs targeting distinct mRNAs compete with each other when transfected together, effectively decreasing the efficacy of one or both of the siRNAs used. pRS and pRS-p53 HCT116 cells were transiently transfected with siRNA pools for ˜800 genes (see Example 3, infra) and measured effects on cellular growth by Alamar Blue assay. […]

The mark [3] stands for this setting: cisplatin, HeLa cell growth, 72 hrs.

For orientation: EC25 means the concentration at which the effect reaches the 25% level. What is called EC10 is the point of the concentration-response curve where the effect stands at 10%. A word on the EC50: it is the midpoint of the concentration-response curve. One may read the IC50 as the concentration needed to halve the response being measured. Lower therefore signals greater potency. `N.N.[Cl][Pt][Cl]` [cisplatin, cis-Diaminedichloroplatinum]: the EC25 in the assay with HeLa cells (400 ng/ml stated to be an <EC25 concentration) is over 0.4 µg/mL. Also, the EC10 with HeLa cells (setting [3]) was about 0.1 µg/mL. Besides, the EC50 with HeLa cells (setting [3]) was about 0.4 µg/mL. The IC50 with TP53-negative A549 cells (cells transfected with BRCA1 or BRCA2 siRNAs) is about 0.1 nM; in the assay on TP53-negative A549 cells (cells transfected with control siRNA (luciferase)), about 1 nM.
In the case of GACTCCAGTGGTAATCTAC [pRS-p53], the “TP53 mRNA silencing” value was over 95% in the assay with TP53 mRNA [1] (stable clones A5 and A11); about 80% in the assay on TP53 mRNA [1] (transient transfection, 24 hr post transfection); > 90% and ~90% with TP53 mRNA [2]. In the assay with CHEK1 and TP53 mRNA, the “competitive inhibition of silencing between TP53 shRNA and CHEK1 siRNA pool” value is “does not affect”.
